Data taken from patent US6489338B2, “Imidazopyridine and imidazopyrimidine antiviral agents” (Bristol-Myers Squibb Company, priority 2000, dated 2002).
pEC50: −log10 of the molar value.

System: respiratory syncytial virus Long strain
Experiment: Antiviral activity against respiratory syncytial virus, MTT cell protection assay in HEp-2 cells
Assay type: cell-based
Settings: HEp-2 cells infected with RSV Long strain, MTT staining
Procedure: The antiviral activity of these compounds against respiratory syncytial virus was determined in HEp-2 (ATCC CCL 23) cells that were seeded in 96 well microtiter plates at 1.5×10^4 cells/100 μL/well in DMEM (Dulbecco's Modified Eagle's Medium) supplemented with penicillin, streptomycin, glutamine, and 10% fetal bovine serum. The cells were incubated overnight at 37° C., the culture medium was removed, and cells were infected (100 μL volume in medium containing 2% fetal bovine serum) with respiratory syncytial virus Long strain at 5000 plaque forming units/mL. The compounds, 100 μL at appropriate dilution, were added to the cells 1 hour post infection. After incubation for 4 days at 37° C., the plates were stained with MTT solution (3-[4,5-dimethlythiazol-2-yl]-2,5-diphenyltetrazolium bromide) and incubated for 4 hours at 37° C. The media was aspirated from the cells and 100 μL/well of acidified isopropanol (per liter: 900 mL isopropanol, 100 mL Triton X100, and 4 mL conc. HCl) was added. Plates were incubated for 15 minutes at room temperature with shaking, and an optical density (OD 540) reading at 540 nanometer (nm) was obtained. The optical density reading is proportional to the number of viable cells. The increase in the number of viable cells reflects the protective, antiviral activity of the compound. […]

pEC50 (human respiratory syncytial virus, compound added 1 hour post infection, 4 days at 37° C., read-out: EC50 (concentration that produces 50% cell protection)): 5.52
Structure (SMILES): NC(=O)c1ncn([C@@H]2O[C@H](CO)[C@@H](O)[C@H]2O)n1 [Ribavirin]
cell protection (at 2.5 μg/mL (corresponding to 10.2 μM)): 100%
